PubChem BioAssay AID248 (DTP/NCI, 2004)
“And” between values parts separate entries of the source, which are not always exact repeats. Equal entries are not always repeated. Toxic doses and inconclusive results are not listed. No stated cut-off is given here; in the data, active means T/C of 150% or more; inactive means T/C below 125%.

System: L1210 leukemia ip in BDF1 mice, survival T/C
Assay: NCI In Vivo Anticancer Drug Screen. Data for tumor model L1210 Leukemia (intraperitoneal) in B6D2F1 (BDF1) mice
Details: endpoint: mean survival time, higher = longer survival
Method in brief: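 Mice bearing the transplanted tumor received compound or vehicle. Survival of the treated group was divided by that of the vehicle-treated control group to give the ratio.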

[1] = dose: 50.0 mg/kg/injection, schedule: Q01DX009 (ip), vehicle: saline with Tween-80
[2] = dose: 100.0 mg/kg/injection, schedule: Q01DX009 (ip), vehicle: saline with Tween-80
[3] = dose: 200.0 mg/kg/injection, schedule: Q01DX009 (ip), vehicle: saline with Tween-80
[4] = dose: 400.0 mg/kg/injection, schedule: Q01DX009 (ip), vehicle: saline with Tween-80
[5] = dose: 100.0 mg/kg/injection, schedule: Q01DX009 (ip), vehicle: saline
[6] = dose: 200.0 mg/kg/injection, schedule: Q01DX009 (ip), vehicle: saline
[7] = dose: 50.0 mg/kg/injection, schedule: Q04DX003 (ip), vehicle: saline with Tween-80
[8] = dose: 100.0 mg/kg/injection, schedule: Q04DX003 (ip), vehicle: saline with Tween-80
[9] = dose: 50.0 mg/kg/injection, schedule: Q01DX001 (ip), vehicle: saline
[10] = dose: 100.0 mg/kg/injection, schedule: Q01DX001 (ip), vehicle: saline
[11] = dose: 200.0 mg/kg/injection, schedule: Q01DX001 (ip), vehicle: saline
[12] = dose: 200.0 mg/kg/injection, schedule: Q04DX003 (ip), vehicle: saline with Tween-80
[13] = dose: 400.0 mg/kg/injection, schedule: Q01DX001 (ip), vehicle: saline
[14] = dose: 400.0 mg/kg/injection, schedule: Q04DX003 (ip), vehicle: saline with Tween-80

Measured: T/C

Nc1ccc(C(=O)O)cc1[N+](=O)[O-]
inactive: dose: 100.0 mg/kg/injection, schedule: Q04DX002 (ip), vehicle: Klucel (hydroxypropylcellulose) (HPC) 95 % of control | dose: 200.0 mg/kg/injection, schedule: Q04DX002 (ip), vehicle: Klucel (hydroxypropylcellulose) (HPC) 100 % of control | dose: 400.0 mg/kg/injection, schedule: Q04DX002 (ip), vehicle: Klucel (hydroxypropylcellulose) (HPC) 95 % of control

CCCCCCCCCCCCCCCC(=O)N(CCC#N)CCCCN(CCC#N)C(=O)CCCCCCCCCCCCCCC
inactive: [1] 97 % of control and 106 % of control | [2] 93 % of control and 90 % of control | [3] 95 % of control and 102 % of control | dose: 300.0 mg/kg/injection, schedule: Q01DX009 (ip), vehicle: saline with Tween-80 92 % of control | [4] 98 % of control and 92 % of control | dose: 500.0 mg/kg/injection, schedule: Q01DX009 (ip), vehicle: saline with Tween-80 92 % of control

CC1c2cc(O)c(O)cc2CCN1C (stereo not drawn)
inactive: dose: 75.0 mg/kg/injection, schedule: Q01DX001 (ip), vehicle: saline 104 % of control | dose: 150.0 mg/kg/injection, schedule: Q01DX001 (ip), vehicle: saline 110 % of control

CCOP(=O)(OCC)C(C)OC (stereo not drawn)
inactive: [5] 95 % of control | [6] 93 % of control | dose: 400.0 mg/kg/injection, schedule: Q01DX009 (ip), vehicle: saline 104 % of control

FC(F)(F)c1ccc2c(c1)N(CCCN(CCCl)CCCl)c1ccccc1S2
inactive: dose: 3.12 mg/kg/injection, schedule: Q01DX001 (ip), vehicle: saline with Tween-80 102 % of control | dose: 3.12 mg/kg/injection, schedule: Q01DX009 (ip), vehicle: saline with Tween-80 102 % of control | dose: 6.25 mg/kg/injection, schedule: Q01DX001 (ip), vehicle: saline with Tween-80 102 % of control | dose: 6.25 mg/kg/injection, schedule: Q01DX009 (ip), vehicle: saline with Tween-80 98 % of control | dose: 12.5 mg/kg/injection, schedule: Q01DX001 (ip), vehicle: saline with Tween-80 100 % of control | dose: 12.5 mg/kg/injection, schedule: Q01DX009 (ip), vehicle: saline with Tween-80 100 % of control | dose: 12.5 mg/kg/injection, schedule: Q04DX003 (ip), vehicle: saline with Tween-80 102 % of control | dose: 25.0 mg/kg/injection, schedule: Q04DX003 (ip), vehicle: saline with Tween-80 113 % of control | [7] 98 % of control | [8] 113 % of control

c1nc(N2CC2)c2cnn(C3CCCCO3)c2n1 (stereo not drawn)
inactive: dose: 50.0 mg/kg/injection, schedule: Q01DX001 (ip), vehicle: carboxymethylcellulose (CMC) 97 % of control | dose: 50.0 mg/kg/injection, schedule: Q01DX009 (ip), vehicle: saline 102 % of control | dose: 100.0 mg/kg/injection, schedule: Q01DX001 (ip), vehicle: carboxymethylcellulose (CMC) 103 % of control | [5] 113 % of control | dose: 100.0 mg/kg/injection, schedule: Q04DX003 (ip), vehicle: saline 100 % of control | dose: 200.0 mg/kg/injection, schedule: Q01DX001 (ip), vehicle: carboxymethylcellulose (CMC) 106 % of control | [6] 112 % of control | dose: 200.0 mg/kg/injection, schedule: Q04DX003 (ip), vehicle: saline 97 % of control | dose: 400.0 mg/kg/injection, schedule: Q01DX001 (ip), vehicle: carboxymethylcellulose (CMC) 103 % of control

O=C(O)c1cccnc1Cl
inactive: [9] 96 % of control | [10] 93 % of control | dose: 100.0 mg/kg/injection, schedule: Q04DX003 (ip), vehicle: Klucel (hydroxypropylcellulose) (HPC) 96 % of control | [8] 105 % of control | [11] 100 % of control | dose: 200.0 mg/kg/injection, schedule: Q04DX003 (ip), vehicle: Klucel (hydroxypropylcellulose) (HPC) 97 % of control | [12] 105 % of control | [13] 106 % of control | dose: 400.0 mg/kg/injection, schedule: Q04DX003 (ip), vehicle: Klucel (hydroxypropylcellulose) (HPC) 91 % of control | [14] 106 % of control

CC(=O)C1C=NCC(C)(C)N=CC(C(C)=O)C(C)=NCCCN=C1C.[Ni] (stereo not drawn)
inactive: dose: 12.5 mg/kg/injection, schedule: Q01DX009 (ip), vehicle: Klucel (hydroxypropylcellulose) (HPC) 95 % of control | dose: 12.5 mg/kg/injection, schedule: Q04DX003 (ip), vehicle: Klucel (hydroxypropylcellulose) (HPC) 96 % of control | dose: 25.0 mg/kg/injection, schedule: Q01DX009 (ip), vehicle: Klucel (hydroxypropylcellulose) (HPC) 100 % of control | dose: 25.0 mg/kg/injection, schedule: Q04DX003 (ip), vehicle: Klucel (hydroxypropylcellulose) (HPC) 91 % of control | dose: 50.0 mg/kg/injection, schedule: Q01DX009 (ip), vehicle: Klucel (hydroxypropylcellulose) (HPC) 97 % of control | dose: 50.0 mg/kg/injection, schedule: Q04DX003 (ip), vehicle: Klucel (hydroxypropylcellulose) (HPC) 102 % of control

COc1ccc(NC(=O)CCC(=O)O)cc1
inactive: [1] 110 % of control | [7] 96 % of control | [2] 108 % of control | [8] 100 % of control | [3] 100 % of control | [12] 100 % of control | [4] 107 % of control | [14] 94 % of control

Cc1cc(C)c(O)c(N=O)c1.[Cu+2]
inactive: [9] 101 % of control | [10] 97 % of control | [11] 101 % of control | [13] 97 % of control

CCN1CC(C)(C)N(C(=O)c2ccccc2)CC1(C)C
inactive: dose: 5.0 mg/kg/injection, schedule: Q01DX001 (ip), vehicle: carboxymethylcellulose (CMC) 98 % of control | dose: 10.0 mg/kg/injection, schedule: Q01DX001 (ip), vehicle: carboxymethylcellulose (CMC) 106 % of control | dose: 20.0 mg/kg/injection, schedule: Q01DX001 (ip), vehicle: carboxymethylcellulose (CMC) 95 % of control | dose: 40.0 mg/kg/injection, schedule: Q01DX001 (ip), vehicle: carboxymethylcellulose (CMC) 109 % of control | dose: 80.0 mg/kg/injection, schedule: Q01DX001 (ip), vehicle: carboxymethylcellulose (CMC) 98 % of control

CN(C)C(=S)[S][Sb]([c]1ccccc1)[c]1ccccc1
inactive: dose: 100.0 mg/kg/injection, schedule: Q01DX001 (ip), vehicle: other 96 % of control

CC1=NN(P(=O)(c2ccccc2)c2ccccc2)/C(=C\c2ccccc2)O1
inactive: dose: 100.0 mg/kg/injection, schedule: Q01DX001 (ip), vehicle: steriod suspending solution 90 % of control | dose: 200.0 mg/kg/injection, schedule: Q01DX001 (ip), vehicle: steriod suspending solution 104 % of control | dose: 400.0 mg/kg/injection, schedule: Q01DX001 (ip), vehicle: steriod suspending solution 90 % of control

Nc1nc(N)c2nc(CBr)cnc2n1
inactive: dose: 6.25 mg/kg/injection, schedule: Q01DX009 (ip), vehicle: saline 105 % of control | dose: 12.5 mg/kg/injection, schedule: Q01DX009 (ip), vehicle: saline 88 % of control | dose: 25.0 mg/kg/injection, schedule: Q01DX009 (ip), vehicle: saline 115 % of control
